We go through 2 molecules from patent US20060167068A1, “Method of treating self-injurious behavior with glutamate modulating agents” (priority 2005, published 2006).

The nature of this series: Case reports: glutamate modulating agent added to medication of patients with borderline personality disorder and self-injurious behavior. The series is classed as in vivo, human. An excerpt:
We describe two patients with borderline personality disorder and prominent cutting behaviors refractory to psychopharmacologic interventions.
Patient 1 was a person with a history of post-traumatic stress disorder and borderline personality disorder. […] They were previously treated with intensive psychotherapy, cognitive behavioral therapy, and pharmacotherapy. Medication management included treatment trials, either alone or in combination, of the following medications: CELEXA (citraloprom HBr), PROZAC (fluoxetine HCl), REMERON (mirtazapine), ZYPREXA (olanzapine), KLONOPIN (clonazepam), LAMICTAL (lamotrigine), RISPERDAL (risperidone), Abilify (aripiprazole), EFFEXOR (venlafaxine HCl), XANAX (alprazolam), WELLBUTRIN (bubroprion HCl), and ATIVAN (lorazepam). Medications provided little relief and their cutting behaviors continued on a daily to weekly basis. Riluzole, a glutamate modulating agent, was added to their medication regimen which consisted of LEXAPRO (escitalopram) 20 mg a day and KLONOPIN 1 mg at bedtime. Riluzole was dosed at 50 mg twice a day. […] This attenuation in their self-injurious behaviors occurred between week 2 and 3 of treatment with riluzole.
Despite the beneficial effects of riluzole with regard to the cutting/self-injurious behaviors (as well as cravings to cut), Patient 1 requested to stop the riluzole secondary to the sedation. Within 1 week of stopping the riluzole, their desire and cravings to cut returned. They were then treated with N-Acetyl Cysteine (NAC), another agent thought to modulate glutamatergic function.
Patient 2 was a person with a long history of borderline personality disorder, major depression, obsessive-compulsive disorder and generalized anxiety disorder. […] These self-injurious behaviors and the cravings to cut worsened under times of stress. They were previously treated with intensive psychotherapy, cognitive behavioral therapy, and pharmacotherapy. Medication management included treatment trials, either alone or in combination, of the following medications: EFFEXOR, ZOLOFT (sertaline HCl), TOPAMAX (topirimate), ATIVAN (lorazepam), trazodone, ABILIFY AND NEURONTIN (gabapentin). Riluzole, a glutamate modulating agent, was added to their medication regimen which consisted of ZOLOFT 200 mg each day, RISPERDAL (risperidone) 2 mg at bedtime, KLONOPIN 1 mg three times per day and PROVIGIL (modafinil) 200 mg a day. Riluzole was dosed at 50 mg twice a day. […] Similar to the first case, the cessation in self-injurious behaviors occurred between week 2 and 3 of treatment with riluzole.

[1] abbreviates: Patient 1, riluzole 50 mg twice a day.

Regarding `CC(=O)N[C@@H](CS)C(=O)O` [NAC, N-Acetyl Cysteine], under “Patient 1, NAC after stopping riluzole”, the “time of treatment until desire to cut remitted” value is on record as at most 2 weeks. Under “Patient 1, on NAC”, the “period without any self-injurious behaviors” value is reported as “over three months”. For the same molecule, the “self-injurious cravings (self-report)” value (Patient 1, on NAC, desire to cut not completely eradicated as while on riluzole) was “significantly attenuated”.
On to `Nc1nc2ccc(OC(F)(F)F)cc2s1` [riluzole, Riluzole], for which the “time after stopping treatment until desire and cravings to cut returned” value (Patient 1, after stopping riluzole) is given as at most 1 week. For the same molecule, under setting [1], the “adverse effect while on treatment” value was “significant sedation” and the “time on treatment without a single episode or desire to harm themself” value was “approximately eight weeks”. In addition, the “cravings to cut / self-injurious behaviors (patient report)” value (Patient 1, riluzole 50 mg twice a day added to LEXAPRO 20 mg a day and KLONOPIN 1 mg at bedtime) is given as “complete cessation of cravings to cut”. Also, the “period without any self-injurious behaviors” value (Patient 2, riluzole 50 mg twice a day) is on record as “over six months”. In addition, where the note is “Patient 2, riluzole 50 mg twice a day added to ZOLOFT 200 mg, RISPERDAL 2 mg, KLONOPIN 1 mg three times per day, PROVIGIL 200 mg”, the “desire to engage in self-injurious behaviors (patient report)” value is on record as “complete cessation”. Besides, the self-injurious behavior entry (both cases (two patients with borderline personality disorder and cutting behaviors refractory to psychopharmacologic interventions), after initiating riluzole) was “significantly decreased”.
